Key:
Test in all cases: Eurofins kinase panel
Format in all cases: biochemical
EGFR(L858R)(h) = molecular target: T1, EGFR(L858R)(h) (Homo sapiens, UniProt P00533, L858R); conditions: read-out: Inhibition rate (%)
T1 construct: purchased Eurofins (KinaseProfiler)

eEF-2K(h) = molecular target: T2, eEF-2K(h) (Homo sapiens, UniProt O00418); conditions: read-out: Inhibition rate (%)
T2 construct: purchased Eurofins (KinaseProfiler)
T2 sequence (O00418 1-725): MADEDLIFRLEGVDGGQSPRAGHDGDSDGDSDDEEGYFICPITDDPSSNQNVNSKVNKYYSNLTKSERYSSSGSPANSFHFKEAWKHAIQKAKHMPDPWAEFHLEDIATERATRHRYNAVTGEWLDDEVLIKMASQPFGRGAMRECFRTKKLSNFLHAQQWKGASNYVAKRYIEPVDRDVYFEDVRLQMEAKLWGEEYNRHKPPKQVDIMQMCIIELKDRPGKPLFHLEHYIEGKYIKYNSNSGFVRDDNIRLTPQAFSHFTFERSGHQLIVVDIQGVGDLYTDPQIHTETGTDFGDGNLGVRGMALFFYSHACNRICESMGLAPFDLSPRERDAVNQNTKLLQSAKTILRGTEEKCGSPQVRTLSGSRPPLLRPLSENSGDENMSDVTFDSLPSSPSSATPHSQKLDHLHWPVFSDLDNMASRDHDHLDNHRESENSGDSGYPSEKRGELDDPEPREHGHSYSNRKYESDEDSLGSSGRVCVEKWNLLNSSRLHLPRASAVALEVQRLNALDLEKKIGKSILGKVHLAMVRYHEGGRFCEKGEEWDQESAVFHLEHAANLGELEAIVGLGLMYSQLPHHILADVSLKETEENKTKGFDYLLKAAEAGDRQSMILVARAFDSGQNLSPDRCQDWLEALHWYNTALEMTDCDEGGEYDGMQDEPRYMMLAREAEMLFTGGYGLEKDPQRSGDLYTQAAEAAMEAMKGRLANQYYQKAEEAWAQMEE

NEK3(h) = molecular target: T3, NEK3(h) (Homo sapiens, UniProt P51956); conditions: read-out: Inhibition rate (%)
T3 construct: purchased Eurofins (KinaseProfiler)
T3 sequence (P51956 1-506): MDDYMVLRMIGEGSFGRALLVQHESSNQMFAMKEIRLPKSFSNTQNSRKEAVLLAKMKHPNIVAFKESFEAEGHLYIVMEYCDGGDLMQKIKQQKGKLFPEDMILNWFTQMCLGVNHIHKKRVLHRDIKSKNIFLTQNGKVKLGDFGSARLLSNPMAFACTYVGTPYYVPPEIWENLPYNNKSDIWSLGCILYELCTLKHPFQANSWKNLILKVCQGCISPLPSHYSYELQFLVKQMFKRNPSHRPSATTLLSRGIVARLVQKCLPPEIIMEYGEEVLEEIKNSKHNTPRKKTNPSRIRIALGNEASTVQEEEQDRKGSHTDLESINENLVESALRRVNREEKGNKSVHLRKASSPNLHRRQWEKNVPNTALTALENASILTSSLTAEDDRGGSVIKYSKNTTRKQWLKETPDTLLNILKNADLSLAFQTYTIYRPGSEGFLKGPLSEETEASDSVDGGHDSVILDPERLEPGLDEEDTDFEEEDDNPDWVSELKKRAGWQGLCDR

JAK2(h) = molecular target: T4, JAK2(h) (Homo sapiens, UniProt O60674); conditions: read-out: Inhibition rate (%)
T4 construct: purchased Eurofins (KinaseProfiler)

PKCζ(h) = molecular target: T5, PKCζ(h) (Homo sapiens, UniProt Q05513); conditions: read-out: Inhibition rate (%)
T5 construct: purchased Eurofins (KinaseProfiler)
T5 sequence (Q05513 1-592): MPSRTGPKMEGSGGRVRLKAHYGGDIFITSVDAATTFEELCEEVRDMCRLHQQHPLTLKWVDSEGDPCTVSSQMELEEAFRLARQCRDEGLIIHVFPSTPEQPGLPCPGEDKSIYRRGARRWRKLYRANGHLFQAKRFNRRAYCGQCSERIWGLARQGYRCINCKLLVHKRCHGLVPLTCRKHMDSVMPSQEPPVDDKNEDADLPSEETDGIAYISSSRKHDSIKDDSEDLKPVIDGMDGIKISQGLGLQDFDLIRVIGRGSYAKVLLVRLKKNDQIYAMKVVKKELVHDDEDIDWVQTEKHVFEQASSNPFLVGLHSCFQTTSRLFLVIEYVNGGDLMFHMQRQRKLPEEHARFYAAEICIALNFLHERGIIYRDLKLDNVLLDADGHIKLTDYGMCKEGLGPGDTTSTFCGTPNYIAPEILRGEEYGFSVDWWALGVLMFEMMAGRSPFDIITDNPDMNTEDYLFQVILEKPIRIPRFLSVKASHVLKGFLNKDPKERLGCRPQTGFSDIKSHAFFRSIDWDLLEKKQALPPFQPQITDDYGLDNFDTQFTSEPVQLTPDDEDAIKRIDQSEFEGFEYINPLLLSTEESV

EphA7(h) = molecular target: T6, EphA7(h) (Homo sapiens, UniProt Q15375); conditions: read-out: Inhibition rate (%)
T6 construct: purchased Eurofins (KinaseProfiler)

FGFR2(h) = FGFR2(h) (Homo sapiens, UniProt P21802)
PKCθ(h) = molecular target: T7, PKCθ(h) (Homo sapiens, UniProt Q04759); conditions: read-out: Inhibition rate (%)
T7 construct: purchased Eurofins (KinaseProfiler)

SAPK2b(h) = molecular target: T8, SAPK2b(h) (Homo sapiens, UniProt Q15759); conditions: read-out: Inhibition rate (%)
T8 construct: purchased Eurofins (KinaseProfiler)
T8 sequence (Q15759 whole entry): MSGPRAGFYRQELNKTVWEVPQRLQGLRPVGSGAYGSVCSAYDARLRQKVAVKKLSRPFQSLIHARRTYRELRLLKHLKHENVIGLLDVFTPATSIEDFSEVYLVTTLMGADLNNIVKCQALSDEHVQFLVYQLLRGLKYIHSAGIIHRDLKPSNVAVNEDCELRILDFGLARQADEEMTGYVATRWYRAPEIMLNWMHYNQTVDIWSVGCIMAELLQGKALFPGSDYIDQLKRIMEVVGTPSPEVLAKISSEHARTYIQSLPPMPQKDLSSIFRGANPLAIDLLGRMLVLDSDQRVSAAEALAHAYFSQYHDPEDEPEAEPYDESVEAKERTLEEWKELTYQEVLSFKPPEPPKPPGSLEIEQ

T6 sequence (Q15375 28-998): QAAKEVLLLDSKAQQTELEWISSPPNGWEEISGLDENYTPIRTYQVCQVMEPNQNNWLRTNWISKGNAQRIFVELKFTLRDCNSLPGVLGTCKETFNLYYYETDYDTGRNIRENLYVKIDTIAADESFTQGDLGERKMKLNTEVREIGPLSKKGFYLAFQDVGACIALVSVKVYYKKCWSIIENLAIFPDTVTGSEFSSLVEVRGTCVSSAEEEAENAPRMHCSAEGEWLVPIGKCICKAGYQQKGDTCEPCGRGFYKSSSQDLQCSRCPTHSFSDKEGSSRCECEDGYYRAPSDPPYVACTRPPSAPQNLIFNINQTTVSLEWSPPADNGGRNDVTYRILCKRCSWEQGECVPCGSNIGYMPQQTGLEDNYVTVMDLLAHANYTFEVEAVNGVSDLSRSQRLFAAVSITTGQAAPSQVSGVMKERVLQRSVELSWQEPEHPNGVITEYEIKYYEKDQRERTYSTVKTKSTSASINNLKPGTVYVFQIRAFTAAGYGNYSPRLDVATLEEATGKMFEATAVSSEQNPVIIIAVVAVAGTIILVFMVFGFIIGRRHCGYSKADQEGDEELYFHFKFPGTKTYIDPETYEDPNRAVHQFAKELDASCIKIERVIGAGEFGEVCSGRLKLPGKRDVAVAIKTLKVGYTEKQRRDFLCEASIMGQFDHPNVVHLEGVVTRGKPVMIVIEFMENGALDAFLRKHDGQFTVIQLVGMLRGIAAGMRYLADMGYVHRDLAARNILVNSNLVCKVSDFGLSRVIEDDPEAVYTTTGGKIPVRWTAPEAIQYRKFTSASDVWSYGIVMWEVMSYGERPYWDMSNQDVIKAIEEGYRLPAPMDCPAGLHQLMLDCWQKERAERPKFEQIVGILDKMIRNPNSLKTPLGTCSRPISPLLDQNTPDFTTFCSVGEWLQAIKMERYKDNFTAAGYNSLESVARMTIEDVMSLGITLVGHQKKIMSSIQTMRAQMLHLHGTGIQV
T1 sequence (P00533 25-1210 L858R): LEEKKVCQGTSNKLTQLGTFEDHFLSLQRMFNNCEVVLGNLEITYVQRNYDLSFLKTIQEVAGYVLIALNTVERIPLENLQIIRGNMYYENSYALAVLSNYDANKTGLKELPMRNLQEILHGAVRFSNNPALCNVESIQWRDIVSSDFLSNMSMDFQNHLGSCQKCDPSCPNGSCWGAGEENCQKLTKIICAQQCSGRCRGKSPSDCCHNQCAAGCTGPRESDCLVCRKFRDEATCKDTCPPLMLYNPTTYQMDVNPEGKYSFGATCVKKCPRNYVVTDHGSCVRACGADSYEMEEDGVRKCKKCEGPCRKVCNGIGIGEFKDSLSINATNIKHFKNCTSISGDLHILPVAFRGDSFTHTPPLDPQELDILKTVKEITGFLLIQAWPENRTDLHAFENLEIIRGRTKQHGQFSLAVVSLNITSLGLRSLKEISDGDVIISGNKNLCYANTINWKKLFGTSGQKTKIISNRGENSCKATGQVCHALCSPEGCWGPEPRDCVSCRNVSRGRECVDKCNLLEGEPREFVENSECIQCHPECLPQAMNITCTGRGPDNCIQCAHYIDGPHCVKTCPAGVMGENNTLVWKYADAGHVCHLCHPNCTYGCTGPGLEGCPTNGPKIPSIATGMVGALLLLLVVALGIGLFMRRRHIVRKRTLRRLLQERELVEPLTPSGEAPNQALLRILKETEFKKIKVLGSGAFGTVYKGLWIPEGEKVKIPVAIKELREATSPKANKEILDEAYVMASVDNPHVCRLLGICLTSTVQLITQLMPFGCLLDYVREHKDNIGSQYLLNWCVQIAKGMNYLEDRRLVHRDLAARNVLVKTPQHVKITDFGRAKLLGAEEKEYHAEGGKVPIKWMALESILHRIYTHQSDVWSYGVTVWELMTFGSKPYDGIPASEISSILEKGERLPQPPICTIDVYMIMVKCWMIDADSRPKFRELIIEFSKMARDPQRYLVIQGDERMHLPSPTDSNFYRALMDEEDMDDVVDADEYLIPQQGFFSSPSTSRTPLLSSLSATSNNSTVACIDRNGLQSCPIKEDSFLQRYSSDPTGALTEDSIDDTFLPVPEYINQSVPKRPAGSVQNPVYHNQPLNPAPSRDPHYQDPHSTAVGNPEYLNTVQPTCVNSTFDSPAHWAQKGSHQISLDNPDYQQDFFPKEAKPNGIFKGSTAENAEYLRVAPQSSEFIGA
Chain of FGFR2(h) (P21802 22-821): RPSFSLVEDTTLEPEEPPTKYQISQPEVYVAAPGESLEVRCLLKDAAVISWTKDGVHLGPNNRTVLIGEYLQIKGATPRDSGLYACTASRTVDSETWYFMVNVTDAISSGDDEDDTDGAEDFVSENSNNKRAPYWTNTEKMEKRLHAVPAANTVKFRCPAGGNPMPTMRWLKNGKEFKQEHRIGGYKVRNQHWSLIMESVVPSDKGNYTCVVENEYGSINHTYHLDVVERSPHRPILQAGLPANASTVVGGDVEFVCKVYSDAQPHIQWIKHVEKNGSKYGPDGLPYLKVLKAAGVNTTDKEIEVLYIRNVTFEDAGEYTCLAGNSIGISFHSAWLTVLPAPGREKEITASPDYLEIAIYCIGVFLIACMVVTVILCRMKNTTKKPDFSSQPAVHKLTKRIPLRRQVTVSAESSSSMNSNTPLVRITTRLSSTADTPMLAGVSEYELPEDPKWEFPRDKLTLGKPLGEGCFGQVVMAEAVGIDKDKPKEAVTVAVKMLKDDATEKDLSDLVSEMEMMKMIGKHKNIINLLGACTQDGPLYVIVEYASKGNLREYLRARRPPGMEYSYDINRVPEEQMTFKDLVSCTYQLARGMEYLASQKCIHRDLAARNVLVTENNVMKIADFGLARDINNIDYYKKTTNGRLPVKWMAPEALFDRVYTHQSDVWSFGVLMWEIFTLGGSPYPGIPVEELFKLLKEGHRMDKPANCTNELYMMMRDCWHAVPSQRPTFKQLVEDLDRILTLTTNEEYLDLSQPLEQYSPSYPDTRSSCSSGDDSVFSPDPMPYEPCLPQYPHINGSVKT
T4 sequence (O60674 whole entry): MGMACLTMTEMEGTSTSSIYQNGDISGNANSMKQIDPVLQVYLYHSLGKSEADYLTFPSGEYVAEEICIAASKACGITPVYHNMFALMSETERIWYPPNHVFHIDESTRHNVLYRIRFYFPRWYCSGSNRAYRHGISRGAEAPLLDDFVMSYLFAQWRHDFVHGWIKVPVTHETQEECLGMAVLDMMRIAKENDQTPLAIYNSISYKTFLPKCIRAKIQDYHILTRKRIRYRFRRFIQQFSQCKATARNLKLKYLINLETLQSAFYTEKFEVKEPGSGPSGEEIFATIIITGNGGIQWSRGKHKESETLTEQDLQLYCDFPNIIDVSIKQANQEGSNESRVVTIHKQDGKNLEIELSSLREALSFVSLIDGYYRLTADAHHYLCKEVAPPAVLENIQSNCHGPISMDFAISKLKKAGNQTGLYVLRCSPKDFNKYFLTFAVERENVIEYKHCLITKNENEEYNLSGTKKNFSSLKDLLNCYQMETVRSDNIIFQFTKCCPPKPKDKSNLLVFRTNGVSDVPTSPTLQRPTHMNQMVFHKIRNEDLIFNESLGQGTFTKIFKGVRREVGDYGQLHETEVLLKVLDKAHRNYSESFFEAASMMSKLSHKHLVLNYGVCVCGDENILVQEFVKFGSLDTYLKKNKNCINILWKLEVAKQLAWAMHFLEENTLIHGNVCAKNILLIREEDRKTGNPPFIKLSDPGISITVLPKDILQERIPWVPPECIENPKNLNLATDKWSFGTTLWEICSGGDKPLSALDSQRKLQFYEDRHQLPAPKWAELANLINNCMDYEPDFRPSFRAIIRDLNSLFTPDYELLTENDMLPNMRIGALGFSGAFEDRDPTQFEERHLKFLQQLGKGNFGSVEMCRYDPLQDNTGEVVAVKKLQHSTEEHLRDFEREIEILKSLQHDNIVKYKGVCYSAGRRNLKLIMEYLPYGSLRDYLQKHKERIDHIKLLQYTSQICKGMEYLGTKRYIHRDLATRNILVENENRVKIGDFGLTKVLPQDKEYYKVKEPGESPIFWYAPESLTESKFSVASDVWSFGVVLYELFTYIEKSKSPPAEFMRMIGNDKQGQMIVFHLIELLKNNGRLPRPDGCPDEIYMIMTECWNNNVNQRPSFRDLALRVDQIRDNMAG

Q: What does the source list for `COc1cc(OC)c(Cl)c(-c2ccc3c(NC(=O)c4ccc(N5CCNC(C)(C)C5)cc4)n[nH]c3n2)c1Cl` [3D185]?
A: inhibition at 0.01 µM (EGFR(L858R)(h); 10 nM): 1%; inhibition at 0.1 µM (EGFR(L858R)(h); 100 nM): 9%; inhibition at 1 µM (EGFR(L858R)(h); 1000 nM): 30%; inhibition at 0.01 µM (eEF-2K(h); 10 nM): 4%; inhibition at 0.1 µM (eEF-2K(h); 100 nM): 2%; inhibition at 1 µM (eEF-2K(h); 1000 nM): 11%; inhibition at 0.01 µM (NEK3(h); 10 nM): 10%; inhibition at 0.1 µM (NEK3(h); 100 nM): 13%; inhibition at 1 µM (NEK3(h); 1000 nM): 5%; inhibition at 0.01 µM (JAK2(h); 10 nM): -14%; inhibition at 0.1 µM (JAK2(h); 100 nM): 5%; inhibition at 1 µM (JAK2(h); 1000 nM): 6%; inhibition at 0.01 µM (PKCζ(h); 10 nM): -11%; inhibition at 0.1 µM (PKCζ(h); 100 nM): 7%; inhibition at 1 µM (PKCζ(h); 1000 nM): -22%; inhibition at 0.01 µM (EphA7(h); 10 nM): 0%; inhibition at 0.1 µM (EphA7(h); 100 nM): 8%; inhibition at 1 µM (EphA7(h); 1000 nM): 21%; IC50 (FGFR2(h); estimated from 372-kinase panel): < 10 nM; inhibition at 0.01 µM (FGFR2(h); read-out: Inhibition rate (%)): 93%; inhibition at 0.1 µM (FGFR2(h); read-out: Inhibition rate (%)): 98%; inhibition at 1 µM (FGFR2(h); read-out: Inhibition rate (%)): 100%; inhibition at 0.01 µM (PKCθ(h); 10 nM): -3%; inhibition at 0.1 µM (PKCθ(h); 100 nM): -4%; inhibition at 1 µM (PKCθ(h); 1000 nM): 1%; inhibition at 0.01 µM (SAPK2b(h); 10 nM): 3%; inhibition at 0.1 µM (SAPK2b(h); 100 nM): 14%; inhibition at 1 µM (SAPK2b(h); 1000 nM): 20%

Reference: paper PMC6704710, “Preclinical evaluation of 3D185, a novel potent inhibitor of FGFR1/2/3 and CSF-1R, in FGFR-dependent and macrophage-dominant cancer models” (Journal of Experimental & Clinical Cancer Research : CR, 2019)
